Reference: ChEMBL document CHEMBL4842359, “1,3-Diarylpyrazolyl-acylsulfonamides as Potent Anti-tuberculosis Agents Targeting Cell Wall Biosynthesis in Mycobacterium tuberculosis” (J Med Chem, 2021)
≈ marks a conversion by molar mass, not a printed value.

Tests used:
[1] = Dru metabolism in iv dosed mouse assessed as metabolite in feces; type: ADME, organism-based; settings: in vivo
[2] = AUC (0 to t) in iv dosed C57BL/6 mouse measured up to 24 hrs by LC-MS/MS analysis; type: ADME, organism-based; parameters: time <=24; settings: in vivo
[3] = Lipophilicity, logD of the compound at pH 7.4 by HPLC-DAD analysis; type: physicochemical; settings: buffer
[4] = Thermodynamic solubility of compound at pH 7.4 aqueous phosphate buffer
[5] = Metabolic stability in mouse liver microsomes assessed as compound remaining at 1 uM by LC-MS/MS analysis; type: ADME, Microsome; settings: for Stabilty: microsomes, 1 µM
[6] = Dru metabolism in iv dosed mouse assessed as metabolite in urine; type: ADME, organism-based; settings: in vivo
[7] = Dru metabolism in iv dosed mouse assessed as metabolite in blood; type: ADME, organism-based; settings: in vivo
[8] = Unbound clearance in iv dosed C57BL/6 mouse measured up to 24 hrs by LC-MS/MS analysis; type: ADME, organism-based; settings: in vivo
[9] = Metabolic stability in rat liver microsomes assessed as compound remaining at 1 uM by LC-MS/MS analysis; type: ADME, Microsome; settings: for Stabilty: microsomes, 1 µM
[10] = Metabolic stability in human liver microsomes assessed as compound remaining at 1 uM by LC-MS/MS analysis; type: ADME, Microsome; settings: for Stabilty: microsomes, 1 µM
[11] = tested on: Mycobacterium tuberculosis; test: microbe, parasite or virus in culture; settings: S2371
Description: Antimycobacterial activity against drug-susceptible Mycobacterium tuberculosis S2371 by MIGIT method

[12] = Terminal half life in iv dosed C57BL/6 mouse measured up to 24 hrs by LC-MS/MS analysis; type: ADME, organism-based; settings: in vivo; for beta t1/2: mouse, 24 h
[13] = tested on: Mycobacterium tuberculosis; test: microbe, parasite or virus in culture; settings: S1125
Description: Antimycobacterial activity against drug-susceptible Mycobacterium tuberculosis S1125 by MIGIT method

[14] = tested on: Mycobacterium tuberculosis; test: microbe, parasite or virus in culture; settings: H37RvMA
Description: Antimycobacterial activity against drug-susceptible Mycobacterium tuberculosis H37RvMA by MIGIT method

[15] = Volume of distribution in iv dosed C57BL/6 mouse measured up to 24 hrs by LC-MS/MS analysis; type: ADME, organism-based; settings: in vivo
[16] = Plasma protein binding in human assessed as unbound fraction at 5 uM by LC-MS/MS analysis; type: ADME, cell-free; settings: for Fu: 5 µM
[17] = tested on: Mycobacterium tuberculosis; test: microbe, parasite or virus in culture; settings: H37Rv, 336 h
Description: Antimycobacterial activity against Mycobacterium tuberculosis H37Rv in presence of middlebrook 7H9/glucose/BSA/tyloxapol medium measured after 14 days by bioluminescence reporter assay

[18] = Oral bioavailability in mouse; type: ADME, organism-based; settings: in vivo
[19] = tested on: Mycobacterium tuberculosis; test: animal or person; type: functional; settings: time 7 day
[20] = Toxicity in BALB/c mouse assessed as tolerability at 200 mg/kg, po once a day treatment initiated 7 days after infection for 12 consecutive days; type: organism-based; settings: in vivo, 168 h, time 7 day
[21] = tested on: Mycobacterium tuberculosis; test: microbe, parasite or virus in culture; settings: 336 h
Description: Antimycobacterial activity against Mycobacterium tuberculosis delta cyd in presence of middlebrook 7H9/glucose/BSA/tyloxapol medium measured for 2 weeks by bioluminescence reporter assay

[22] = tested on: Mycobacterium tuberculosis; test: microbe, parasite or virus in culture; settings: H37RvMA, 336 h
Description: Antimycobacterial activity against Mycobacterium tuberculosis H37RvMA in presence of middlebrook 7H9/glucose/BSA/tyloxapol medium measured for 2 weeks by bioluminescence reporter assay

[23] = tested on: Mycobacterium tuberculosis; type: functional; settings: H37Rv
HepG2 [24] = test: Cytotoxicity against human HepG2 cells under galactose containing medium; type: cell-based
HepG2 [25] = test: Cytotoxicity against human HepG2 cells under glucose containing medium; type: cell-based
[26] = liver microsomes, read-out: Stabilty

| SMILES | AUCt [2] | logD [3] | solubility thermodynamic [4] | Stabilty [5] | CL free [8] | Stabilty [9] | Stabilty [10] | beta t1/2 [12] | Vd ([15]; C57BL/6, mouse, read-out: Vd) | Fu [16] | MIC [17] | Vd ([15]; mouse, 24 h) | further results |
| --- | --- | --- | --- | --- | --- | --- | --- | --- | --- | --- | --- | --- | --- |
| CS(=O)(=O)NC(=O)NCc1cn(-c2ccc(Cl)cc2)nc1-c1ccncc1 | 29 µmol·min/L | 0.81 | 150 µM (≈ 60.9 µg/mL) | 91% | 4878 mL/min/kg | 98% | 99% |  |  |  |  |  | Drug metabolism [1]: Metabolite_Notdetected; Drug metabolism [6]: Metabolite_Notdetected; Drug metabolism [7]: Metabolite_Notdetected |
| CS(=O)(=O)NC(=O)CCc1cn(-c2ccc(Br)cc2)nc1-c1ccncc1 | 15 µmol·min/L | 0.93 | 185 µM (≈ 83.1 µg/mL) | 79% | > 20000 mL/min/kg | 94% | 85% | 1.3 h | 0.1 L/kg |  |  |  | MIC [11]: 30 µM (≈ 13.5 µg/mL); MIC [13]: 15 µM (≈ 6.74 µg/mL); MIC [14]: ≤ 15 µM |
| CS(=O)(=O)NC(=O)CCc1cn(-c2ccc(C(F)(F)F)nc2)nc1-c1ccc(Cl)cc1 | 134 µmol·min/L | 1.87 | 90 µM (≈ 42.6 µg/mL) | 94% | 1872 mL/min/kg | 98% | 94% | 3 h |  | 0.036 fraction | 4.7 µM (≈ 2.22 µg/mL) | 8.7 L/kg |  |
| CS(=O)(=O)NC(=O)OCc1cn(-c2ccc(Cl)cc2)nc1-c1ccncc1 | 22 µmol·min/L | 2.73 |  | 98% | > 20000 mL/min/kg | 97% | 97% | 5.8 h | 0.1 L/kg | 0.03 fraction | 123 µM (≈ 50 µg/mL) |  |  |
| CS(=O)(=O)NC(=O)CCc1cn(-c2ccc(Cl)cc2)nc1-c1ccc(Cl)cc1 | 4883 µmol·min/L |  | 100 µM (≈ 43.8 µg/mL) |  | 111 mL/min/kg |  |  |  | 1.2 L/kg |  | 4.7 µM (≈ 2.06 µg/mL) |  | fraction unbound at 5 µM [16]: 0.023; bioavailability [18]: > 95%; MIC at 200 mg/kg ([19]; Mycobacterium tuberculosis, Erdman, in Mus musculus, po, 168 h): 9.1 µM (≈ 3.99 µg/mL); fIC50 ([19]; dose 200 mg/kg): 11 µM; Activity [20]: Non-Toxic; half-life ([12]; C57BL/6, mouse, read-out: beta t1/2 (converted)): 3.6 h; logD ([3]; read-out: logD): 2; MIC [21]: 4 µM (≈ 1.75 µg/mL); remaining at 1 µM [5, 26]: 87%; MIC [22]: 4 µM (≈ 1.75 µg/mL); remaining at 1 µM [9, 26]: > 99%; remaining at 1 µM [10, 26]: 98% |
| CS(=O)(=O)NC(=O)CCc1cn(-c2ccc(Br)cc2)nc1-c1cccnc1 | 31 µmol·min/L | 0.84 | 200 µM (≈ 89.9 µg/mL) | 94% | 8091 mL/min/kg | 95% | 37% | 1.7 h |  | 0.022 fraction | 6.25 µM (≈ 2.81 µg/mL) | 28.1 L/kg |  |
| CS(=O)(=O)NC(=O)CCc1cc(-c2ccc(Br)cc2)nn1-c1ccc(Cl)cc1 | 1359 µmol·min/L | 2.1 | 200 µM (≈ 96.6 µg/mL) | 91% | 313 mL/min/kg | 87% | > 99% | 3.6 h |  | 0.01 fraction | 6.25 µM (≈ 3.02 µg/mL) | 1 L/kg |  |
| CS(=O)(=O)NC(=O)CCc1cn(-c2ccc(Br)cc2)nc1-c1ccc(Cl)cc1 | 3527 µmol·min/L | 2.4 | 170 µM (≈ 82.1 µg/mL) | 71% | 295 mL/min/kg | 74% | 90% |  |  |  |  | 0.2 L/kg | IC90 [23]: 6.25 µM; IC50 (HepG2 [24]): > 50 µM; IC50 (HepG2 [25]): > 50 µM |
| CS(=O)(=O)NC(=O)CCc1cn(-c2ccc(Br)cc2)nc1C1CCOCC1 | 31 µmol·min/L | 0.55 | 200 µM (≈ 91.3 µg/mL) | 77% | 2071 mL/min/kg | 83% | 86% | 2.3 h |  | 0.07 fraction | 9.4 µM (≈ 4.29 µg/mL) | 29.3 L/kg |  |
| CCc1cc(C(N)=S)ccn1 [ETHIONAMIDE] |  |  |  |  |  |  |  |  |  |  |  |  | MIC [22]: 15.6 µM (≈ 2.59 µg/mL) |
